According to US10815275B2, “Antimicrobial peptoids with improved selectivity and use thereof” (priority 2018, dated 2020):
In brackets after ≈: the same amount, converted by molar mass. Non-standard residues stand in square brackets, D forms with d. Residues, ends and D or L forms follow the SMILES beside them. Nspe = C[C@H](NCC(=O)O)c1ccccc1; Nlys = NCCCCNCC(=O)O

Assays:
red blood cells = assay: Hemolytic activity on red blood cells; format: cell-based, mouse
Procedure, shortened: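 Washed mouse red blood cells (10% v/v in PBS, pH 7.4) incubated with peptoids for 1 h at 37 °C; released haemoglobin read at 540 nm. % hemolysis normalised to 0.1% Triton X-100 (100%) and PBS blank; HD10, HD50 derived, Hmax taken at 200 μM top concentration.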

in vitro = format: cell-based; conditions: concentration indicating 50% survival, 24 h, MTS; read-out: LC50
Procedure, shortened: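 Human lung […] cells, 1.3×10^4 per well in DMEM with 10% FBS, incubated overnight, then treated 24 h with 2-fold serially diluted peptoid at 37° C, 5% CO2. MTS added for 4 hours, absorbance 490 nm; % survival relative to untreated control cells.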

[1] = Metabolic stability in human liver S9 fraction, HPLC; format: in vitro ADME; conditions: 37° C., after 24 hours
Experimental: In order to identify metabolic stability of the peptoids synthesized in Preparation Example 1, such peptoids were subjected to enzymatic reaction using S9 fraction which is a mixture of human liver tissue-extracted metabolic enzymes. Thereafter, for the reaction products, metabolites were quantitated using HPLC.
Specifically, Peptoid NOS. 1 and 4, and Pexiganan as a peptide control (40 μL each, 100 μM) were treated with […], 3.3 mM MgCl2, and 1.3 mM NADPH buffer (306 μL, pH=7.4), to prepare respective samples. The respective samples were treated with S9 fraction (2 μL, 0.1 mg/mL) and then incubated at a temperature of 37° C. When 0, 1, 4, and 24 hours had elapsed after treatment with the S9 fraction, 40 μL of each sample was taken out, and acetonitrile containing the same amount of 0.1% trifluoroacetic acid was used to stop activity of enzymes contained in the S9 fraction. Thereafter, proteins precipitated with acetonitrile were centrifuged at a condition of 1,000×g for 10 minutes at a temperature of 4° C. Then, supernatant was analyzed by HPLC to identify an amount of the remaining peptoid which had not been degraded by the enzymes in the S9 fraction.

E. coli = assay: Selectivity analysis, HD10 divided by MIC for E. coli; conditions: HD10 of Table 6 divided by MIC for E. coli ATCC25922
Experimental: In order to identify changes in selectivity depending on alteration of degree of folding in helical structure of peptoids, selectivity of each peptoid was calculated using the resultant values measured in the Experimental Examples 1 and 2. The selectivity was obtained by dividing the HD10 value by the minimum inhibitory concentration for E. coli (Table 8).

B. subtilis = format: cell-based; conditions: LB medium, 18 h
Procedure, shortened: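 B. subtilis or E. coli DH5α grown 18 h at 37 °C in LB, diluted to 2×10^5 CFU/mL and exposed to 2-fold serial peptoid dilutions for 18 h at 37 °C. Growth read by A600; MIC taken as lowest concentration fully suppressing growth, averaged over three independent experiments.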

C[C@@H](c1ccccc1)N(CC(N)=O)C(=O)CN(C(=O)CN(CCCCN)C(=O)CN(C(=O)CN(C(=O)CN(CCCCN)C(=O)CN(C(=O)CN(C(=O)CN(CCCCN)C(=O)CN(C(=O)CN(C(=O)CNCCCCN)[C@@H](C)c1ccccc1)[C@@H](C)c1ccccc1)[C@@H](C)c1ccccc1)[C@@H](C)c1ccccc1)[C@@H](C)c1ccccc1)[C@@H](C)c1ccccc1)[C@@H](C)c1ccccc1 [compound 1] (H-[Nlys][Nspe][Nspe][Nlys][Nspe][Nspe][Nlys][Nspe][Nspe][Nlys][Nspe][Nspe]-NH2)
Hmax (%) (red blood cells; Table 6, hemolysis rate at 200 μM): 113.4 ± 2.0%
HD10 (red blood cells; Table 6, peptoid concentration causing 10% hemolysis, highest concentration 200 μM, in µM (unit assumed)): 1.2
HD50 (red blood cells; Table 6, peptoid concentration causing 50% hemolysis, highest concentration 200 μM, in µM (unit assumed)): 42.8
Hmax (%) (red blood cells; Table 13, hemolysis rate at highest concentration 200 μM): 100%
CC50 at 24 h (in vitro): 8 µM
remaining amount after S9 fraction treatment ([1]; human liver S9 fraction, 1440 min): about 64%
remaining at 24 h, 11.5 μM ([1]; human, s9, pH 7.4, human liver S9 fraction, read-out: remaining amount after S9 fraction treatment): ≥ 60%
Selectivity [HD10/MIC (E. coli)] (E. coli): 0.4
MIC B. subtilis (B. subtilis): 0.8 µM (≈ 1.46 µg/mL)
